Experimental data from the NIST ThermoML archive (doi:10.1021/je900550v).

Conditions: 101.33 kPa, Liquid; for speed of sound: Pulse-echo method; for mass density: Vibrating tube method

C[NH2+]CCO.O=C[O-] [2-hydroxy-N-methylethanaminium formate]
Conditions	mass density [kg/m3]	speed of sound [m/s]	viscosity [mPa·s]
308.15 K	1122.67	1795.8	13.73
308.4 K	1122.53	1795.4	–
308.65 K	1122.39	1794.9	–
308.9 K	1122.25	1794.4	–
309.15 K	1122.11	1793.9	–
309.4 K	1121.97	1793.4	–
309.65 K	1121.83	1792.9	–
309.9 K	1121.69	1792.5	–
310.15 K	1121.55	1792	12.78
310.4 K	1121.41	1791.5	–
310.65 K	1121.27	1791	–
310.91 K	1121.13	1790.5	–
311.16 K	1120.99	1790	–
311.4 K	1120.85	1789.5	–
311.65 K	1120.71	1789	–
311.91 K	1120.57	1788.5	–
312.16 K	1120.43	1788	–
312.41 K	1120.29	1787.6	–
312.66 K	1120.15	1787.1	–
312.91 K	1120.02	1786.6	–
313.15 K	–	–	11.4
313.16 K	1119.87	1786.1	–
313.4 K	1119.74	1785.6	–
313.66 K	1119.6	1785.1	–
313.9 K	1119.46	1784.6	–
314.15 K	1119.32	1784.1	–
314.4 K	1119.18	1783.6	–
314.65 K	1119.04	1783.1	–
314.9 K	1118.9	1782.7	–
315.15 K	1118.77	1782.2	10.56
315.41 K	1118.62	1781.7	–
315.65 K	1118.49	1781.2	–
315.91 K	1118.35	1780.7	–
316.16 K	1118.21	1780.2	–
316.41 K	1118.07	1779.7	–
316.66 K	1117.93	1779.2	–
316.91 K	1117.79	1778.8	–
317.16 K	1117.65	1778.3	–
317.4 K	1117.52	1777.8	–
317.65 K	–	–	9.7
317.66 K	1117.38	1777.3	–
317.91 K	1117.24	1776.8	–
318.16 K	1117.1	1776.3	–
318.41 K	1116.96	1775.8	–
318.65 K	1116.82	1775.3	–
318.9 K	1116.69	1774.8	–
319.16 K	1116.55	1774.4	–
319.41 K	1116.41	1773.9	–
319.65 K	1116.27	1773.4	–
319.91 K	1116.13	1772.9	–
320.16 K	1115.99	1772.4	–
320.41 K	1115.86	1772	–
320.65 K	1115.72	1771.5	9.07
320.91 K	1115.58	1771	–
321.15 K	1115.44	1770.5	–
321.41 K	1115.3	1770	–
321.66 K	1115.16	1769.6	–
321.9 K	1115.03	1769.1	–
322.15 K	1114.89	1768.6	–
322.41 K	1114.75	1768.1	–
322.65 K	1114.61	1767.6	–
322.91 K	1114.47	1767.2	–
323.15 K	–	–	8.38
323.16 K	1114.34	1766.7	–
323.41 K	1114.2	1766.2	–
323.65 K	1114.06	1765.7	–
323.91 K	1113.92	1765.2	–
324.16 K	1113.79	1764.8	–
324.41 K	1113.65	1764.3	–
324.65 K	1113.51	1763.8	–
324.9 K	1113.38	1763.3	–
325.16 K	1113.24	1762.8	–
325.4 K	1113.1	1762.3	–
325.66 K	1112.96	1761.9	–
325.9 K	1112.83	1761.4	–
326.16 K	1112.69	1760.9	–
326.41 K	1112.55	1760.4	–
326.66 K	1112.42	1759.9	–
326.9 K	1112.28	1759.4	–
327.16 K	1112.14	1759	–
327.4 K	1112.01	1758.5	–
327.66 K	1111.87	1758	–
327.9 K	1111.74	1757.5	–
328.15 K	1111.6	1757	–
328.41 K	1111.46	1756.5	–
328.66 K	1111.33	1756	–
328.9 K	1111.19	1755.6	–
329.16 K	1111.06	1755.1	–
329.4 K	1110.92	1754.6	–
329.65 K	1110.78	1754.1	–
329.9 K	1110.65	1753.6	–
330.16 K	1110.52	1753.2	–
330.41 K	1110.38	1752.7	–
330.66 K	1110.25	1752.2	–
330.91 K	1110.12	1751.8	–
331.16 K	1109.99	1751.3	–
331.41 K	1109.86	1750.8	–
331.66 K	1109.73	1750.3	–
331.91 K	1109.6	1749.9	–
332.16 K	1109.47	1749.4	–
332.41 K	1109.34	1748.9	–
332.66 K	1109.21	1748.5	–
332.91 K	1109.08	1748	–
333.16 K	1108.95	1747.5	–
333.41 K	1108.82	1747.1	–
333.66 K	1108.69	1746.6	–
333.91 K	1108.56	1746.2	–
334.16 K	1108.43	1745.7	–
334.41 K	1108.3	1745.2	–
334.66 K	1108.18	1744.8	–
334.91 K	1108.05	1744.3	–
335.16 K	1107.92	1743.8	–
335.41 K	1107.79	1743.4	–
335.66 K	1107.67	1742.9	–
335.91 K	1107.54	1742.5	–
336.16 K	1107.42	1742	–
336.41 K	1107.29	1741.6	–
336.66 K	1107.16	1741.1	–
336.9 K	1107.03	1740.7	–
337.16 K	1106.9	1740.2	–
337.4 K	1106.78	1739.8	–
337.66 K	1106.66	1739.4	–
337.9 K	1106.53	1738.9	–
338.15 K	1106.43	1738.6	–
